Laboratory results published in US20090054507A1, “CONTROL OF MALIGNANT CELLS BY KINASE INHIBITION” (CLEVELAND STATE UNIVERSITY, priority 2006, published 2009).

Assays:
MEG-01 cells = test: Flow cytometric DNA content assay using PI/RNAse A; format: cell-based, human; conditions: 10 μM DMAT for 4 days
Description: Flow cytometric DNA content assessment assay using PI/RNAse A. Cells were serum starved in order to synchronize them in the GO phase. Treatment with DMAT 10 μM for a period of 4 days was performed and then cells were collected for further processing. Cells were fixed in 80% cold Ethanol/PBS added drop-wise. Before PI staining cells were washed with sterile, RNAse, DNAse free, PBS buffer. Fixed cells were incubated with 50 μg/ml PI and 100 μg/ml RNAse A-I in hypotonic citrate staining buffer for 30 minutes in dark, at room temperature.

[1] = tested on: platelets from MEG-01 cells; test: Function assays of platelets released from treated MEG-01 cells; format: cell-based, human
Description: Platelets isolation from culture. Platelets were separated from the megakaryocytic cells, by differential centrifugation and analyzed separately. Suspension cells were centrifuged first at 100 g-150 g for 15 minutes, and then the platelets rich supernatant was kept and centrifuged again at 800 g for 15 minutes. For impeding artefactual aggregation of platelets in the control, EDTA and RGD or RGDS were added in the cell suspension from the beginning of the centrifugations, and with each centrifugation step. 1 mg/ml RGD or RGDS and 10 mM EDTA final concentrations, were used for negative control (inactivated) or resting platelets. Platelets were activated with different agonists: 100 nM PMA, 1 μg/ml TRAP and 0.5 U/ml human a-thrombin. For most of assays TRAP 1 μg/ml was used. For scanning electron microscopy experiment (formation of the fibrin clot) human a-thrombin was used. For both sample sets, activated (with TRAP) and inactivated (EDTA, RGD), platelets collected from MEG-01 cultures incubated with 10 μM DMAT for 4 days were utilized.
PAC-I-FITC binding due to platelet activation flow cytometric assay. Monoclonal antibody PAC-1 recognizes an epitope on the glycoprotein αIIbβ3 of activated platelets. […]
Fibrinogen-Alexa Fluor 488 binding to platelets flow cytometric assay. […] Final concentration of fibrinogen conjugated to Alexa Fluor 488 was determined spectrophotometrically. […]

MEG-01 tumors = test: Hematoxylin & eosin staining of MEG-01 tumors; format: in vivo, mice; parameters: dose or concentration left out as unconfirmed; conditions: DMAT treated vs control
Description: (§1) Hematoxylin & eosin staining of tumor tissue and organs. After euthanasia with CO2, mice were supposed to necropsy. Tumors were collected from under the skin from both flanks and were measured for the last time and then fixed in formalin fixative. Spleen, liver, kidney, brain, lungs and legs were collected and fixed. Spleens were also measured (as length, […]). Fresh tissue was immersed immediately into liquid nitrogen and kept frozen at −80° C. Fixed tissue was embedded in paraffin and next processed for H&E (the basic dye hematoxylin, and the alcohol-based synthetic material, eosin) by the Cleveland Clinic Histology Core facility. Sections (4-μm thick) were stained with hematoxylin and eosin and evaluated for pathologic changes in a blinded fashion. H&E staining gives morphological information (vascularization, normal proliferating tissue, necrosis and apoptosis of the tissue).

WM-164 cells = test: Anchorage independence in soft agar, WM-164; format: cell-based, human; conditions: DMAT 10 μM, one week
tumors of ACHN cells = test: Murine xenograft of ACHN cells, tumor volume; format: in vivo, mice; conditions: DMAT at effective dosage levels (in DMSO) per animal per day, 59 days
Description: FIG. 94 illustrates the effect of administration of DMAT as compared to a control over a period of 59 days. FIG. 94 is a graph of a murine xenograft treated with DMAT, compared to a control. Mice with tumors of ACHN cells were treated with DMAT at effective dosage levels (in DMSO) per animal per day. The daily animal weight was averaged at 32.5 g at the start of treatment. Tumors were measured daily and tumor volumes were calculated based upon a prolate spheroid model. FIG. 94 illustrates the significant benefits of treatment with DMAT (circles) as compared to the control (squares). […] The differences in tumor volume between control cells and those treated with DMAT, as described herein, are striking.

tumor tissue and organs = test: Hematoxylin & eosin staining of tumor tissue and organs of treated xenograft mice (all cell lines); format: in vivo
Description: as §1

SMILES: CN(C)c1nc2c(Br)c(Br)c(Br)c(Br)c2[nH]1 [DMAT, 2-dimethylamino-4,5,6,7-tetrabromo-1H-benzimidazole]
- DNA content (ploidy) (MEG-01 cells): become polyploid (ploidy higher than 2N)
- fibrin clot formation by platelets from treated MEG-01 cells ([1]; DMAT 10 μM at 72 hours, human thrombin 0.5 U/ml): form a fibrin clot
- function of platelets obtained from treated MEG-01 cells ([1]; response to human thrombin 0.5 U/ml): functional
- apoptotic-necrotic areas in tumors (hematoxylin and eosin) (MEG-01 tumors): significantly greater areas of apoptosis and necrosis
- colonies in soft agar (WM-164 cells): much smaller and fewer colonies
- tumor volume (tumors of ACHN cells): proliferation arrest in vivo for large tumors and tumor ablation in small tumors
- necrotic and apoptotic areas of tumors from treated mice vs untreated (DMSO) control tumors (tumor tissue and organs; all tumors, hematoxylin-eosin staining): high necrotic and apoptotic areas
- other organs of treated mice, hematoxylin-eosin staining (tumor tissue and organs; mouse, in vivo): appeared normal
